Test results from US12433870B2, “Supramolecular photoprotection of a photosensitizer” (Northwestern University, priority 2019, dated 2025).
“Also recorded” adds a separate entry of the source.

Experiments:
[1] = Solubility in water / PBS buffer; type: physicochemical; conditions: H2O
[2] = Detection of singlet oxygen (ADPA chemical method, methylene blue reference); type: physicochemical; conditions: H2O, 20 μM, 630 nm, 50 mW, 20 min
Protocol: Singlet oxygen (^1O2) quantum-yield measurements were conducted by a chemical method. The disodium salt of 9.10-anthracenedipropionic acid (ADPA) was used as singlet oxygen detection reagent with methylene blue used as a reference (Φt=0.53). In this experiment, ADPA (0.1 μmol) was added to the H2O solution of ExBox^4+⊃DPP (20 μM) with a laser irradiation (630 nm, 50 mW) for 20 min, followed by quantification of ^1O2 by the absorbance intensity change (UV-3600 Shimadzu spectrophotometer) at 380 nm of ADPA. The calculation of ^1O2 quantum yield is based on the equality ΦΔ=(ΔAs/[…])Φr. ΔAs is the absorption change of detected photosensitizer, ΔAr is the absorption change of referenced photosensitizer and Φ^r is the quantum yield of singlet oxygen of referenced photosensitizer (methylene blue).
(§1) ADPA (0.1 μmol) was added to the H2O solution of DPPH2^+ (20 μM) with a laser irradiation (630 nm, 50 mW) for 20 min, followed by quantification of the ^1O2 by the absorbance intensity change (UV-3600 Shimadzu spectrophotometer) at 380 nm of ADPA. The calculation of the ^1O2 quantum yield is based on the equality ΦΔ=(ΔAs/ΔAr)Φr where ΔAs is the absorption change of detected photosensitizer, ΔAr is the absorption change of referenced photosensitizer and Φr is the quantum yield of singlet oxygen of referenced photosensitizer (methylene blue). Measured ^1O2 quantum yield of DPPH2^2+ is 0.38 in H2O.
as §1, with “acetone” for “H2O”, “DPP” for “DPPH2^+”, “DPP” for “DPPH2^2+”, “0.43” for “0.38”, “acetone.” for “H2O.”

C1=Cc2nc1cc1ccc([nH]1)c(-c1ccccc1)c1nc(cc3ccc([nH]3)c2-c2ccccc2)C=C1.c1cc2ccc1C[n+]1ccc(cc1)-c1ccc(cc1)-c1cc[n+](cc1)Cc1ccc(cc1)C[n+]1ccc(cc1)-c1ccc(cc1)-c1cc[n+](cc1)C2 [ExBox^4+⊃DPP]
solubility in H2O [1]: soluble in H2O
singlet oxygen generation upon photoexcitation [2]: did not generate any singlet oxygen; also recorded: ^1O2 was not generated
